Here are results for five molecules from US8961942B2, “Sunless tanning compositions with adjuvants comprising sulfur comprising moieties” (Conopco, Inc., priority 2011, dated 2015).

The experiment is described as follows: In vitro color change (ΔE*) of adjuvant plus dihydroxyacetone formulations on synthetic skin. Particulars: for ΔE* at 5 hours / ΔE* at 21 hours / ΔE* at 46 hours: Example 4: total adjuvant at molar equivalent of 1% glycine, dihydroxyacetone 2.5%; for ΔE* at 5 hours: pH 3.5, 5 hours; for ΔE* at 21 hours: pH 3.5, 21 hours; for ΔE* at 46 hours: pH 3.5, 46 hours; for ΔE* at 5.5 Hours / ΔE* at 29 Hours / ΔE* at 53 Hours: adjuvant at molar equivalent of 1% glycine with 2.5% dihydroxyacetone, pH 3.5, 5 μl/cm^2, 35° C. and 40% RH. As for the experimental part:
Commercially available Vitro-Skin® (synthetic skin) was used as the substrate and pH of the adjuvant and dihydroxyacetone formulations were maintained at 3.5, adjusted with citric acid.
The synthetic skin was pre-hydrated at 95% Relative Humidity (RH) for about 24 hours and then treated with formulations at a dosage of 5 μl/cm^2. The treated synthetic skin was stored at 35° C. and 40% RH for certain time frames, not exceeding 53 hours. Color development was monitored periodically after treatment using a HunterLab Labscan XE colorimeter. ΔE* is defined as √[(ΔL*)^2+(Δa+)^2+(Δb*)^2] where ΔL* is lightness change, Δa* is the change in +red/−green, Δb* is the change in […] and further where smaller ΔE* indicates less color change.

Each structure is given as a SMILES string. Counter-ions that a name gives are not always drawn.

Regarding `NCCOS(=O)(=O)O` [2-Aminoethyl Hydrogen Sulfate], the “ΔE* at 5 hours” value is 15, the “ΔE* at 21 hours” value is given as 25, the “ΔE* at 46 hours” value stood at 27 and the “ΔE* at 5.5 Hours” value is on record as 20.0. In addition, the “ΔE* at 29 Hours” value is given as 35.0 and the “ΔE* at 53 Hours” value is listed as 39.0.

For `CSCCN` [2-Methylthio-Ethylamine], the “ΔE* at 5.5 Hours” value was 22.0, the “ΔE* at 29 Hours” value was 32.0 and the “ΔE* at 53 Hours” value came to 36.0.

`NCC(=O)O` [Glycine, reference compound]: the “ΔE* at 5.5 Hours” value is given as 15.5, the “ΔE* at 29 Hours” value turned out to be 33.0 and the “ΔE* at 53 Hours” value is on record as 37.0.

In the case of `NCCS(=O)O` [Hypotaurine], the “ΔE* at 5.5 Hours” value worked out at 8.0, the “ΔE* at 29 Hours” value worked out at 21.0 and the “ΔE* at 53 Hours” value is on record as 26.0.

As for `NCCS(=O)(=O)O` [Taurine], the “ΔE* at 5 hours” value amounted to 9, the “ΔE* at 21 hours” value was 26, the “ΔE* at 46 hours” value is on record as 28 and the “ΔE* at 5.5 Hours” value was found to be 17.0. Further, the “ΔE* at 29 Hours” value was determined as 33.0 and the “ΔE* at 53 Hours” value is 36.0.
